{"source": "patent US20220339143A1", "about": "“TAK-925 FOR USE IN TREATING NARCOLEPSY” (Takeda Pharmaceutical Company Limited, priority 2019, published 2022)", "assay_type_in_all_cases": "in vivo, human", "key": {"[1]": {"test_system": "patients with narcolepsy type 1 (NT1)", "assay": "Safety/tolerability of a single dose given as 9 hour continuous IV infusion in NT1 patients", "protocol": "(§1) This study investigates (i) the safety and tolerability of Compound A (methyl (2R,3S)-3-((methylsulfonyl)amino)-2-(((cis-4-phenylcyclohexyl)oxy)methyl)piperidine-1-carboxylate) when a single dose given as a 9 hour continuous IV infusion is administered to healthy adults, healthy elderly subjects and patients with narcolepsy type 1 (NT1); (ii) the pharmacokinetics of Compound A when a single dose given as a 9 hour continuous IV infusion is administered to healthy adults, healthy elderly subjects and patients with narcolepsy type 1; and (iii) the pharmacodynamics (PD) effects of Compound A, primarily by evaluation of the sleep latency on MWT when a single dose given as a 9 hour continuous IV infusion is administered to patients with narcolepsy type 1.\nSafety and tolerability: adverse events, vital signs, 12-lead ECG and clinical laboratory tests (hematological tests, blood biochemical tests and urinalysis)\nTo investigate the safety of Compound A, the treatment-emergent adverse events (TEAEs) for healthy subjects and subjects with narcolepsy type 1 (NT1 patients) treated with Compound A were evaluated. A summary of the TEAEs for healthy subjects from cohorts 1 and 2 is shown in FIG. 3, for healthy subjects from cohorts S1, S2, 3, and 4 is shown in FIG. 4, and for NT1 patients is shown in FIG. 5."}, "[2]": {"assay": "Single dose PK in healthy elderly subjects (Cohort 3), plasma", "protocol": "as §1\nPharmacokinetics: Concentrations of Compound A in plasma, and CSF, and pharmacokinetics parameters."}, "[3]": {"test_system": "patients with narcolepsy type 1 (NT1)", "assay": "Number of cataplexy episodes (daily diary), single dose (Cohorts 5, 6, 7)", "details": "for Number of Events of Cataplexy per Week in one particular patient: cohort 7", "source_text": "Assessment of cataplexy and other sleep manifestations using a daily diary to collect episodes of cataplexy and sleep symptoms associated with NT1."}, "patients with NT1 [4]": {"test_system": "patients with NT1", "assay": "KSS, multiple dose (Cohorts B1, B2)", "details": "9 hours postdose", "protocol": "(§2) The purpose of the study was to evaluate the safety, tolerability, pharmacokinetics and pharmacodynamics of Compound A after multiple IV administration in patients with NT1. NT1 patients were evaluated in Cohort B1 and B2 (Table 19). Compound A or placebo were administered via IV infusion over 9 hours once daily for 7 days. A total of 13 patients with NT1 were treated with Compound A or placebo (4, 4, and 5 subjects in the placebo, Compound A 11 mg, and Compound A 44 mg groups, respectively). In this part, potential efficacy of Compound A was evaluated with MWT, ESS, KSS, night-time PSG (NPSG), cataplexy frequency assessment, and PGI-C as an exploratory PD assessment."}, "patients with NT1 [5]": {"test_system": "patients with NT1", "assay": "Safety and tolerability of multiple IV administration in patients with NT1", "protocol": "as §2"}}}
{"smiles": "COC(=O)N1CCC[C@H](NS(C)(=O)=O)[C@@H]1CO[C@H]1CC[C@@H](c2ccccc2)CC1", "note": "[Compound A, methyl (2R,3S)-3-((methylsulfonyl)amino)-2-(((cis-4-phenylcyclohexyl)oxy)methyl)piperidine-1-carboxylate]", "values": [{"measurement": "AEs observed in NT1 at the highest dose", "setting": "[1]; 44.8 mg", "result": "Blood pressure increase, heart rate increase, central nervous system (CNS) related symptoms (euphoric mood, hypnagogic hallucination and logorrhea) and salivary hypersecretion were observed"}, {"measurement": "dose dependent effect on BP and heart rate increase", "setting": "[1]; NT1 subjects, doses up to 44.8 mg", "result": "not notable"}, {"measurement": "tolerability", "setting": "[1]; single dose, slow infusion over 9 hours, up to 44.8 mg, narcolepsy type 1 patients", "result": "well-tolerated with no major safety concerns"}, {"measurement": "reduction in clearance compared to younger healthy subjects", "setting": "[2]", "result": 20, "unit": "%"}, {"measurement": "Subjects without any Events (cataplexy)", "setting": "[3]; 5 mg (N = 6)", "result": "3 (50.0) N (%)"}, {"measurement": "Number of Times of a Cataplexy Episode, Mean (SD)", "setting": "[3]; 5 mg, After End of Infusion", "result": "10.2 (23.45)"}, {"measurement": "Number of Times of a Cataplexy Episode, Median", "setting": "[3]; 5 mg, After End of Infusion", "result": 0.5}, {"measurement": "Number of Times of a Cataplexy Episode, Mean (SD)", "setting": "[3]; 5 mg, During Infusion", "result": "0.0 (0.00)"}, {"measurement": "Number of Times of a Cataplexy Episode, Median", "setting": "[3]; 5 mg, During Infusion", "result": 0.0}, {"measurement": "Subjects without any Events (cataplexy)", "setting": "[3]; 11.2 mg (N = 4)", "result": "3 (75.0) N (%)"}, {"measurement": "Number of Times of a Cataplexy Episode, Mean (SD)", "setting": "[3]; 11.2 mg, After End of Infusion", "result": "0.0 (0.00)"}, {"measurement": "Number of Times of a Cataplexy Episode, Median", "setting": "[3]; 11.2 mg, After End of Infusion", "result": 0.0}, {"measurement": "Number of Times of a Cataplexy Episode, Mean (SD)", "setting": "[3]; 11.2 mg, During Infusion", "result": "0.8 (1.50)"}, {"measurement": "Number of Times of a Cataplexy Episode, Median", "setting": "[3]; 11.2 mg, During Infusion", "result": 0.0}, {"measurement": "Subjects without any Events (cataplexy)", "setting": "[3]; 44.8 mg (N = 4)", "result": "3 (75.0) N (%)"}, {"measurement": "Number of Times of a Cataplexy Episode, Mean (SD)", "setting": "[3]; 44.8 mg, After End of Infusion", "result": "0.8 (1.50)"}, {"measurement": "Number of Times of a Cataplexy Episode, Median", "setting": "[3]; 44.8 mg, After End of Infusion", "result": 0.0}, {"measurement": "Number of Times of a Cataplexy Episode, Mean (SD)", "setting": "[3]; 44.8 mg, During Infusion", "result": "0.0 (0.00)"}, {"measurement": "Number of Times of a Cataplexy Episode, Median", "setting": "[3]; 44.8 mg, During Infusion", "result": 0.0}, {"measurement": "Number of Events of Cataplexy per Week in one particular patient", "setting": "[3]; During Cmpd A infusion (baseline 808, during placebo infusion 83)", "result": 0}, {"measurement": "Number of Events of Cataplexy per Week in one particular patient", "setting": "[3]; Post Cmpd A infusion", "result": 58}, {"measurement": "frequency of cataplexy compared to baseline frequency in one patient of cohort 7", "setting": "[3]; during the infusion of Compound A", "result": "remarkably improved"}, {"measurement": "mean change from baseline in KSS", "setting": "patients with NT1 [4]; 11 mg, Day 1 (placebo 0.0)", "result": "−3.0"}, {"measurement": "mean change from baseline in KSS", "setting": "patients with NT1 [4]; 11 mg, Day 7 (placebo −0.3)", "result": "−2.0"}, {"measurement": "mean change from baseline in KSS", "setting": "patients with NT1 [4]; 44 mg, Day 1 (placebo 0.0)", "result": "−4.4"}, {"measurement": "mean change from baseline in KSS", "setting": "patients with NT1 [4]; 44 mg, Day 7 (placebo −0.3)", "result": "−4.6"}, {"measurement": "BP and PR increases vs plasma exposure", "setting": "patients with NT1 [5]; NT1 patient populations", "result": "A trend for the observed BP and PR increases with increasing Compound A plasma exposure was observed"}, {"measurement": "safety and tolerability", "setting": "patients with NT1 [5]; multiple IV administrations of up to 44 mg, 9 h infusion once daily for 7 days, NT1", "result": "safe and well tolerated"}, {"measurement": "SAE and TEAE leading to study drug discontinuation", "setting": "patients with NT1 [5]; multiple IV administrations of up to 44 mg, NT1", "result": "There was no SAE, and no TEAE leading to study drug discontinuation"}]}
